Laboratory results from patent US4879311A, “Derivatives of benzoyloxyacetic acid, and preparation and formulations thereof for therapeutic use” (Inverni della Beffa S.p.A., priority 1987, dated 1989).
Where a name gives a salt, the structure may show the parent alone.

Assay: pH of aqueous solution
Type: physicochemical
Conditions: 1% aqueous solution

Question: Which “pH in 1% aqueous solution” value does the source give for Cc1ccc(Cl)c(Nc2ccccc2C(=O)OCC(=O)O)c1Cl [Ic, d,l-lysine salt (Ic) of 2-[(2,6-dichloro-3-methylphenyl)-amino]benzoyloxyacetic acid] here?
Answer: Its value is 6.75.
